Earlier results on two molecules are cited in patent US20150147356A1, “ANTIPYRETICS TO ENHANCE TOLERABILITY OF VESICLE-BASED VACCINES” (priority 2011, published 2015).

For series [1] the following is noted: in vivo.
The conditions of series [2]: in vivo. The source holds these as a separate data set.

“And” between values parts separate entries of the source, which are not always exact repeats. Identical values can stand only once.

As for `CC(C)Cc1ccc(C(C)C(=O)O)cc1` (stereo not shown) [Ibuprofen, ibuprofen], the Therapeutic blood level is 10-50 μg/ml and 49-243 μM. Also, in series [1], the duration of action entry was “about 4 hours”.
For the molecule `CC(=O)Nc1ccc(O)cc1` [paracetamol, paracetamol (acetaminophen)], the Therapeutic blood level was 10-30 μg/ml and 66-199 μM. Further, the half-life entry in series [2] was “about 3 hours”.
